For this experiment, the system named is rash caused by small molecule EGFR inhibitors. The experiment is described as follows: Prevention of rash caused by small molecule EGFR inhibitors, topical ointment, rat model. It counts as in vivo, SD rats. The gist of the method:
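Female SD rats (~200 g, dorsal hair shaved, 10/group) dosed daily by gavage with small-molecule EGFR inhibitors; compound ointment or blank matrix applied once daily to ~3 cm×3 cm of back, left 4 h, then wiped off. Repeated until obvious rash in controls; control rate = % of treated rats with milder rash than controls.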

For the compound `C[C@@H]1CCN(C(=O)CC#N)C[C@@H]1N(C)c1ncnc2c1ccn2C(=O)N(C)CCOC(=O)C1CCCO1` (stereo partly shown) [Compound A7], the “Control Rate” value reads like this: (Afatinib 40 mg/kg once a day, ointment 0.1 wt% once a day, 14 days) 20%; (Afatinib 40 mg/kg once a day, ointment 0.3 wt% once a day, 14 days) 50%; (Afatinib 40 mg/kg once a day, ointment 1.0 wt% once a day, 14 days) 70%; (Afatinib 40 mg/kg once a day, ointment 3.0 wt% once a day, 14 days) 75%; (Afatinib 40 mg/kg once a day, ointment 5.0 wt% once a day, 14 days) 80%; (Afatinib 40 mg/kg once a day, ointment 10.0 wt% once a day, 14 days) 60%. Besides, the “Control Rate” value is, setting by setting: (Dacomitinib 10 mg/kg once a day, ointment 1.0 wt% once a day, 12 days) 40%; (Dacomitinib 10 mg/kg once a day, ointment 5.0 wt% once a day, 12 days) 80%; (EAI045 80 mg/kg once a day, ointment 1.0 wt% once a day, 11 days) 30%; (EAI045 80 mg/kg once a day, ointment 10.0 wt% once a day, 11 days) 60%; (Gefitinib 80 mg/kg twice a day, ointment 0.3 wt% once a day, 15 days) 10%; (Gefitinib 80 mg/kg twice a day, ointment 1.0 wt% once a day, 15 days) 50%. Moreover, the “Control Rate” value is, setting by setting: (Gefitinib 80 mg/kg twice a day, ointment 3.0 wt% once a day, 15 days) 60%; (Gefitinib 80 mg/kg twice a day, ointment 5.0 wt% once a day, 15 days) 60%; (Osimertinib 60 mg/kg twice a day, ointment 0.3 wt% once a day, 10 days) 20%; (Osimertinib 60 mg/kg twice a day, ointment 5.0 wt% once a day, 10 days) 70%.

These data come from patent publication US20250188088A1, “COMPOUND AND USE THEREOF” (ONQUALITY PHARMACEUTICALS CHINA LTD., priority 2022, published 2025).
